Read-outs that look alike come from different tables or passages of the source.
Experiments:
[1] = tested on: L. major axenic amastigotes; test: L. major axenic amastigote viability, resazurin reduction; settings: Leishmania major; for viability at 2.5 µM: read-out: viability, L.major amastigote(2.5 µM)
Method: L. major LV561(MHOM/IL/67/LRC-L137 JERICHO II) amastigotes were passaged in Grace insect medium supplemented with NaHCO3, 0.1% amikin and 20% of FCS (pH: 5.4) and kept at 33°C.
Exponential growth phase promastigotes of L. major or L. infantum and axenic amastigotes (L. major) were harvested and seeded in 384 well plates (white, non-transparent, tissue culture treated, flat bottom; Corning) (0.5x10^5 cells per well). Compounds were pre-dispensed into the plate with an Echo 650 acoustic dispenser (Beckman Coulter). After 72h incubation, resazurin was added (1:10 v/v) from a […] stock in PBS, followed by incubation for six hours. Then, fluorescence intensity was measured using a microplate reader (Synergy H1, BioTek) with excitation filter: 550 nm and emission filter: 590 nm. Efficient compounds were selected for the next round of viability assay with 2.5 μM concentrations of the compounds. […] All experiments were performed with AmB as a positive control drug in parallel.
Axenic amastigotes, the relevant form that persists in the infected host, were generated in the lab through established procedures, employing harsh pH (pH 5) and high temperature (33°C) conditions.

[2] = tested on: intracellular L. infantum amastigotes; test: Parasite rescue assay (intramacrophage, J774 infected with L. infantum); type: cell-based, Leishmania infantum; settings: J774, 25 µM; intracellular amastigote; read-out: viability, intracellular L. major amastigote (25 µM)
T. cruzi trypomastigotes = test: T. cruzi viability, resazurin reduction; type: cell-based, Trypanosoma cruzi; settings: Trypanosoma cruzi; for viability at 2.5 µM: read-out: viability, T.cruzi (2.5 µM); for viability at 25 µM: read-out: viability, T.cruzi (25 µM)
Method: T. cruzi (Y strain) trypomastigotes were passaged in liver infusion broth media supplemented with tryptose, NaCl, Na2HPO4, KCl, glucose, hemin, Pen-Strep (1%), 10% FCS (pH: 7.2) and kept at 28°C.
(§1) Viability of T. brucei brucei BSF and T. cruzi trypomastigotes was assayed with fluorescence resazurin reduction assay, essentially as described above. […] Next, selected compounds were tested at 2.5 μM concentration, and promising compounds subjected to 18 concentrations dose response analyses. AN3057 and AmB were used as a control drug in T. brucei and T. cruzi, respectively.

[3] = Cytotoxicity assay J774, resazurin reduction; type: cell-based, murine; settings: mouse, J774 macrophage cells; for viability at 72 h, 2.5 µM: read-out: viability, J774 (2.5 µM); for viability at 72 h, 25 µM: read-out: viability, J774 (25 µM)
Method: Mammalian cell lines (J774 and HepG2) were passaged in RPMI media supplemented with MEM, Pen-Strep (1%) and 10% FCS. Cultures were kept at 37°C incubator with 5% CO2 in filter-cap flasks.
Murine macrophage cells (J774) and human hepatocyte carcinoma HepG2 cells were seeded at 0.5x10^5 cell/well in 384 well plates in triplicate, exposed to serial dilution of compounds, dispensed using an Echo 650 acoustic dispenser (Labcyte). After incubation for 72 h at 37°C, 5% CO2, cell viability was determined using fluorescence resazurin reduction assay (λEx: 550 nm; λEm: 590 nm).

E. histolytica = E. histolytica viability, ATP luminescence (Cell titer glo); type: cell-based, Entamoeba histolytica; settings: Entamoeba histolytica; for viability at 2.5 µM: read-out: viability, E.histolytica (2.5 µM); for viability at 25 µM: read-out: viability, E.histolytica (25 µM)
In short: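 E. histolytica strain B2-5 at 2.5x10^4 cells/ml was exposed to compound for 48 h at 37 °C under anaerobic conditions, with viability read as ATP luminescence (CellTiter-Glo). The primary screen used 25 μM in triplicate, and follow-up potency runs used 9–16-point ranges spanning 0.01–100 μM.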

L. major promastigotes = test: L. major promastigote viability, resazurin reduction; type: cell-based, Leishmania major; settings: Leishmania major, read-out: viability, L.major promastigote (25 µM)
Text: (§2) The infectivity of the parasites was boosted by passaging in Balb/c mice and culturing the infected lymph nodes after six weeks. L. infantum (MHOM / BR / 76 / M4192) parasite was passaged in the same media formulation with 0.5% urine.

[4] = tested on: L. infantum promastigotes; test: L. infantum promastigote viability, resazurin reduction; type: cell-based, Leishmania infantum; settings: Leishmania infantum, sheet LTC_compound_viability, value ± spread; for viability at 2.5 µM: read-out: viability, L. infantum promastigote (2.5 µM); for viability at 25 µM: read-out: viability, L. infantum promastigote (25 µM)
Text: as §2

T. brucei brucei BSF = test: T. brucei BSF viability, resazurin reduction; type: cell-based, Trypanosoma brucei brucei; settings: Trypanosoma brucei; for viability at 25 µM: read-out: viability, T.brucei (25 µM)
Method: T. brucei brucei (strain 427 Lister) blood stream form (BSF) parasites were passaged in complete HMI-9 media supplemented with 10% FCS, Pen-Strep (0.1%) and 2-mercaptoethanol (0.014 v/v) and kept in a 37° C CO2 incubator in filter-cap flasks.
as §1

[5] = read-out: viability, L.major amastigote (25 µM)
[6] = 2.5 µM, read-out: viability, T.brucei (2.5 µM)
[7] = 72 h, read-out: Residual viability, T.brucei (2.5 µM), BSF, 2.5 µM, 72 h

Row | Compound | viability at 25 µM [1, 5] [%] | viability at 25 µM [2] [%] | viability at 2.5 µM (T. cruzi trypomastigotes) [%] | viability at 25 µM (T. cruzi trypomastigotes) [%] | melting point [°C] | viability at 72 h, 2.5 µM [3] [%] | viability at 72 h, 25 µM [3] [%] | viability at 2.5 µM (E. histolytica) [%] | viability at 25 µM (E. histolytica) [%] | viability at 25 µM (L. major promastigotes; 72 h) [%] | viability at 25 µM (L. major promastigotes; 25 µM) [%] | viability at 2.5 µM [4] [%] | viability at 25 µM [4] [%] | viability at 2.5 µM (T. brucei brucei BSF; [6]) [%] | viability at 25 µM (T. brucei brucei BSF) [%] | viability at 2.5 µM [1] [%] | viability at 2.5 µM (T. brucei brucei BSF; [7]) [%] | viability at 25 µM ([1]; 72 h, read-out: Residual viability, L.major amastigote (25 µM)) [%]
1 | N[C@@H](Cc1ccccc1)[C@@H](O)CNc1ccc(C(F)(F)F)cc1 [LTC-1027, (2S,3S)-3-Amino-4-phenyl-1-((4-(trifluoromethyl)phenyl)amino)butan-2-ol] | 75.5 ± 3.25 | 79.3 ± 16.4 | 61.8 ± 2.34 | 12 ± 0.47 | 105 to 107 | 96.1 ± 4.11 | 99.9 ± 8.05 | 79.1 ± 9.1 | 2.09 ± 3.63 | 72.2 ± 16.2 | -0.24 ± 0.15 | 77.9 ± 1.82 | 0.64 ± 0.3 | 11.2 ± 1.8 | 2.27 ± 0.89 | – | – | –
2 | CC(=O)c1ccc(NC[C@H](O)[C@@H](N)Cc2ccccc2)cc1 [LTC-1031, 1-(4-(((2S,3S)-3-Amino-2-hydroxy-4-phenylbutyl)amino)phenyl)ethan-1-one] | 70.9 ± 2.23 | 98 ± 5.56 | 58.4 ± 1.11 | 59.3 ± 2.74 | 123 to 125 | 95.4 ± 4.41 | -0.69 ± 0.73 | 74.1 ± 12.7 | 105 ± 18.2 | 91.6 ± 2.08 | 62.7 ± 3.51 | 83.7 ± 2.96 | 44.9 ± 6.2 | 75.5 ± 4.37 | 2.18 ± 0.95 | – | – | –
3 | Cc1ccc(NC[C@H](O)[C@@H](N)Cc2ccccc2)cc1 [LTC-1043, (2S,3S)-3-Amino-4-phenyl-1-(p-tolylamino)butan-2-ol] | 22.1 ± 2.55 | 63.4 ± 7.61 | 61.9 ± 0.89 | 31.9 ± 1.78 | 57 to 59 | 95.7 ± 7.77 | 93.5 ± 8.83 | 74.3 ± 21.6 | 97.3 ± 19.4 | 83.4 ± 5.16 | 22.1 ± 5 | 71.6 ± 5.44 | 16.9 ± 2.12 | 80.6 ± 2.56 | 2.22 ± 1.09 | 76.2 ± 2.46 | – | –
4 | N[C@@H](Cc1ccccc1)[C@@H](O)CNc1ccc(F)cc1F [LTC-1032, (2S,3S)-3-Amino-1-((2,4-difluorophenyl)amino)-4-phenylbutan-2-ol] | 76 ± 0.96 | 73 ± 5.58 | 59.8 ± 1.24 | 29 ± 1.22 | 89 to 91 | 96.3 ± 3.07 | 96.6 ± 11.9 | 56.3 ± 3.32 | 118 ± 17.6 | 86.3 ± 2.23 | 0.57 ± 0.34 | 84.1 ± 3.01 | 9.17 ± 0.49 | -0.94 ± 0.33 | 2.18 ± 0.88 | – | < 10 | –
5 | N[C@@H](Cc1ccccc1)[C@@H](O)CNc1ccc(F)cc1 [LTC-1026, (2S,3S)-3-Amino-1-((4-fluorophenyl)amino)-4-phenylbutan-2-ol] | 59.5 ± 7.56 | 102 ± 4.55 | 58.6 ± 1.12 | 57.8 ± 6.73 | 88 to 90 | 94.6 ± 3.96 | -0.01 ± 0.89 | 65.6 ± 10.1 | 113 ± 30.5 | 93.3 ± 1.34 | 34.1 ± 3.37 | 84.16 ± 0.61 | 56.98 ± 0.29 | 71.2 ± 5.23 | 2.26 ± 0.92 | – | – | –
6 | CC(C)(C)c1ccc(NC[C@H](O)[C@@H](N)Cc2ccccc2)cc1 [LTC-1034, (2S,3S)-3-Amino-1-((4-(tert-butyl)phenyl)amino)-4-phenylbutan-2-ol] | 15.2 ± 1.86 | 105 ± 5.69 | 60.1 ± 2.2 | 30.8 ± 2.5 | 74 to 76 | 96.6 ± 5.47 | 64.1 ± 4.5 | 52 ± 6.13 | 123 ± 5.09 | 79.3 ± 17.2 | 6.26 ± 1.21 | 68 ± 22.2 | 3.46 ± 0.12 | 72.8 ± 4.34 | 2.34 ± 1.3 | 73.9 ± 0.76 | – | 15.2
7 | N[C@@H](Cc1ccccc1)[C@@H](O)CNc1cccc(C(F)(F)F)c1 [LTC-1029, (2S,3S)-3-Amino-4-phenyl-1-((3-(trifluoromethyl)phenyl)amino)butan-2-ol] | 67.9 ± 2.07 | 76.8 ± 12.2 | 56.8 ± 2.34 | 6.68 ± 2.95 | 72 to 74 | 94.9 ± 4.03 | 91.9 ± 10.1 | 70.3 ± 18.1 | 15.4 ± 5.25 | 88.9 ± 5.45 | -0.13 ± 0.19 | 82.2 ± 2.25 | 0.37 ± 0.05 | -0.97 ± 0.28 | 2.21 ± 0.85 | – | < 10 | –

From publication PMC10994559 (PLOS Neglected Tropical Diseases, 2024)
